What was measured:
MCF-7 cells = experiment: SiNW-ECIS impedance and capacitance response of MCF-7 cells to antitubulin drugs; type: cell-based, human; details: MCF-7 on SiNW electrodes, PTX 0.1 nano-moles per liter; for normalized capacitance change versus control sample / normalized impedance change versus control sample: 2 hours (T1) after drug incubation; for normalized capacitance change versus control sample / normalized impedance change versus control sample / change in electrical impedance with respect to control sample / norm of capacitive changes, control sample more than drug value / change of norm in impedance of treated cells, T1 vs. T2: ABZ 2.1 nano-moles per liter; for change in electrical impedance with respect to control sample / norm of capacitive changes, control sample more than drug value: 6 hours (T2) after drug incubation
Method: In this example, the diagnostic response of cells membrane to extremely low dose of antitubulin drugs is investigated. Initially, MCF-7 cell lines, isolated from grade I human breast tumors, were obtained from the National Cell Bank of Iran (Pasteur Institute). Then, cells were maintained in a CO2 incubator (37° C., 5% CO2) in RPMI-1640 medium supplemented with 5% fetal bovine serum, and 1% penicillin/streptomycin. The fresh medium was replaced every other day. Then, the cultured cells were dropped on the surface of the SiNW-ECIS, designed and fabricated pursuant to teachings of the present application. Prior to each experiment, cells were trypsinized to be detached from the substrate and resuspended on the SiNW surface. To minimize the effect of trypsinization, the procedure may last for less than 4 minutes at room temperature of about 20° C. The samples were held in an incubator for about 4 hours to achieve cells attachment on the SiNWs. Thereafter, the ABZ drug with low concentrations of about 2.1 nano-moles per liter and the PTX drug with low concentrations of about 0.1 nano-moles per liter were added to individual samples. Finally, the signal recording and biological assays were investigated about 2 hours and 6 hours after the drug treatment (6 hours and 10 hours after the beginning of culturing process).
Referring to FIGS. 12A-12G, comparative normalized diagrams of impedance (designated by ΔZ% and represented by solid black lines) and capacitance changes (designated by ΔC% and represented by dashed grey lines) are illustrated for MCF-7 cells seeded on SiNW electrodes after treating by 2.1 nano-moles per liter of ABZ and 0.1 nano-moles per liter of PTX. The time interval between the drug incubation and the signal extraction are 2 hours (designated by T1) and 6 hours (designated by T2). In addition, the same diagrams are plotted for control sample prepared with no drug treatment stage.
According to the method described in the present example, the samples were maintained in an incubator so that the signal extraction was repeated 10 hours after cells dropping (6 hours after drug incubation for treated samples) to monitor the time evolution of drug induced MT polymerization/depolymerization on bioelectrical response of the membrane.

[1] = tested on: tubulin assemblies of MCF-7 cells; experiment: Confocal microscopy of tubulin assemblies of MCF-7 cells; type: cell-based, human; details: ABZ 2.1 nano-moles per liter, PTX 0.1 nano-moles per liter
Method: In addition, an un-treated control sample was prepared as reference for comparison. Then, samples were washed with PBS and permeabilized with microtubule stabilizing buffer [80 mM PIPES-KOH (pH 6.8), 5 mM EGTA, and 1 mM MgCl2 containing 0.5% Triton X-100] for 5 min at room temperature before being fixed with chilled absolute methanol for 10 min at −20° C. Thereafter, the fixed cells were washed and incubated with monoclonal mouse anti-α-tubulin antibody (Sigma Co.) for 1 hour at room temperature followed by incubation with FITC-conjugated antimouse IgG antibody (Santa Cruz Biotechnology). The stained cells were mounted with Vectashield (Vector Laboratories, Burlingame, Calif.) and observed by confocal microscopy.

[2] = between 2 hours (T1) and 6 hours (T2) after drug incubation

CCCSc1ccc2nc(NC(=O)OC)[nH]c2c1 [ABZ, Albendazole]
normalized capacitance change versus control sample (MCF-7 cells): 70%
normalized impedance change versus control sample (MCF-7 cells): 25%
change in electrical impedance with respect to control sample (MCF-7 cells): about 90%
norm of capacitive changes, control sample more than drug value (MCF-7 cells): about 90%
change of norm in impedance of treated cells, T1 vs. T2 (MCF-7 cells; [2]): about 60%
spindle / microtubule appearance in confocal image ([1]; MCF-7, 2 hours after treatment): abnormally reduced numbers of spindles or monopolar (monoaster) spindles
spindle / microtubule appearance in confocal image ([1]; MCF-7, 6 hours after treatment): still the monoastered MTs are observable

CC(=O)O[C@H]1C(=O)[C@@]2(C)[C@H]([C@H](OC(=O)c3ccccc3)[C@]3(O)C[C@H](OC(=O)[C@H](O)[C@@H](NC(=O)c4ccccc4)c4ccccc4)C(C)=C1C3(C)C)[C@]1(OC(C)=O)CO[C@@H]1C[C@@H]2O [PTX, Paclitaxel]
normalized capacitance change versus control sample (MCF-7 cells): about 60%
normalized impedance change versus control sample (MCF-7 cells): about 50%
change in electrical impedance with respect to control sample (MCF-7 cells): about 30%
norm of capacitive changes, control sample more than drug value (MCF-7 cells): ~75%
change of norm in impedance of treated cells, T1 vs. T2 (MCF-7 cells; [2]): 15%
time dependent variation in capacitive behavior, T1 vs. T2 (MCF-7 cells; [2]): about 85%
spindle / microtubule appearance in confocal image ([1]; MCF-7, 2 hours after treatment): aggregated spindles
spindle / microtubule appearance in confocal image ([1]; MCF-7, 6 hours after treatment): increased aggregation in MT spindles is noticeable
